Assay results as given in BindingDB's records for doi:10.1016/s0960-894x(03)00254-3 (Merck Research Laboratories, 2003).
pIC50: −log10 of the molar value.

Experiments:
[1] = Ability to bind to the […] integrin expressed as inhibitory concentration against ADP-stimulated aggregation of human gel-filtered platelets
[2] = Ability to bind to the alpha IIb beta-3 integrin expressed as inhibitory concentration against ADP-stimulated aggregation of human gel-filtered platelets

pIC50 [1]	pIC50 [2]	Compound
	< 5.52	O=C(O)C[C@H](NC(=O)CN1CCCC(CCc2ccc3c(n2)NCCC3)C1=O)c1cccnc1 (stereo partly drawn) [3-(2-{2-Oxo-3-[2-(5,6,7,8-tetrahydro-[1,8]naphthyridin-2-yl)-ethyl]-piperidin-1-yl}-acetylamino)-3-(S)-pyridin-3-yl-propionic acid]
< 5.52		O=C(O)C[C@H](NC(=O)CNC(=O)CCCc1ccc2c(n1)NCCC2)c1cccnc1 [(S)-3-Pyridin-3-yl-3-[2-(4-5,6,7,8-tetrahydro-[1,8]naphthyridin-2-yl-butyrylamino)-acetylamino]-propionic acid]
< 5.52		CCc1c(Cl)nc(NCc2ccc3c(n2)NCCC3)c(=O)n1CC(=O)N[C@@H](CC(=O)O)c1cccc(F)c1 [(S)-3-(2-{5-Chloro-6-ethyl-2-oxo-3-[(5,6,7,8-tetrahydro-[1,8]naphthyridin-2-ylmethyl)-amino]-2H-pyrazin-1-yl}-acetylamino)-3-(3-fluoro-phenyl)-propionic acid]
< 5.52		O=C(O)C[C@H](NC(=O)Cn1c(C2CC2)cnc(NCc2ccc3c(n2)NCCC3)c1=O)c1ccc2c(c1)OCO2 [(S)-3-Benzo[1,3]dioxol-5-yl-3-(2-{6-cyclopropyl-2-oxo-3-[(5,6,7,8-tetrahydro-[1,8]naphthyridin-2-ylmethyl)-amino]-2H-pyrazin-1-yl}-acetylamino)-propionic acid]
< 5.52		O=C(O)C[C@H](NC(=O)Cn1c(C2CC2)c(Cl)nc(NCc2ccc3c(n2)NCCC3)c1=O)c1cccnc1 [(S)-3-(2-{5-Chloro-6-cyclopropyl-2-oxo-3-[(5,6,7,8-tetrahydro-[1,8]naphthyridin-2-ylmethyl)-amino]-2H-pyrazin-1-yl}-acetylamino)-3-pyridin-3-yl-propionic acid]
< 5.52		Cc1c(Cl)nc(NCc2ccc3c(n2)NCCC3)c(=O)n1CC(=O)N[C@@H](CC(=O)O)c1cccc(F)c1 [(S)-3-(2-{5-Chloro-6-methyl-2-oxo-3-[(5,6,7,8-tetrahydro-[1,8]naphthyridin-2-ylmethyl)-amino]-2H-pyrazin-1-yl}-acetylamino)-3-(3-fluoro-phenyl)-propionic acid]
< 5.52		O=C(O)C[C@H](NC(=O)Cn1c(C2CC2)c(Cl)nc(NCc2ccc3c(n2)NCCC3)c1=O)c1cnc2ccccc2c1 [(S)-3-(2-{5-Chloro-6-cyclopropyl-2-oxo-3-[(5,6,7,8-tetrahydro-[1,8]naphthyridin-2-ylmethyl)-amino]-2H-pyrazin-1-yl}-acetylamino)-3-quinolin-3-yl-propionic acid]
< 5.52		Cc1cnc(NCc2ccc3c(n2)NCCC3)c(=O)n1CC(=O)N[C@@H](CC(=O)O)c1cccc(F)c1 [(S)-3-(3-Fluoro-phenyl)-3-(2-{6-methyl-2-oxo-3-[(5,6,7,8-tetrahydro-[1,8]naphthyridin-2-ylmethyl)-amino]-2H-pyrazin-1-yl}-acetylamino)-propionic acid]
	< 5.52	Cc1ccc(NCc2ccc3c(n2)NCCC3)c(=O)n1CC(=O)N[C@@H](CC(=O)O)c1cccnc1 [3-(2-{6-Methyl-2-oxo-3-[(5,6,7,8-tetrahydro-[1,8]naphthyridin-2-ylmethyl)-amino]-2H-pyridin-1-yl}-acetylamino)-3-(S)-pyridin-3-yl-propionic acid]
	< 5.52	O=C(O)C[C@H](NC(=O)Cn1c(C2CC2)ccc(NCc2ccc3c(n2)NCCC3)c1=O)c1ccc2c(c1)OCC2 [(S)-3-(2-{6-Cyclopropyl-2-oxo-3-[(5,6,7,8-tetrahydro-[1,8]naphthyridin-2-ylmethyl)-amino]-2H-pyridin-1-yl}-acetylamino)-3-(2,3-dihydro-benzofuran-6-yl)-propionic acid]
< 5.52		O=C(O)C[C@H](NC(=O)Cn1c(C2CC2)c(Cl)nc(NCc2ccc3c(n2)NCCC3)c1=O)c1ccc2c(c1)OCC2 [(S)-3-(2-{5-Chloro-6-cyclopropyl-2-oxo-3-[(5,6,7,8-tetrahydro-[1,8]naphthyridin-2-ylmethyl)-amino]-2H-pyrazin-1-yl}-acetylamino)-3-(2,3-dihydro-benzofuran-6-yl)-propionic acid]

The remaining lines, values behind:

Compound	pIC50 [1]	pIC50 [2]
O=C(O)C[C@H](NC(=O)Cn1c(C2CC2)c(Cl)nc(NCc2ccc3c(n2)NCCC3)c1=O)c1cccc(F)c1 [(S)-3-(2-{5-Chloro-6-cyclopropyl-2-oxo-3-[(5,6,7,8-tetrahydro-[1,8]naphthyridin-2-ylmethyl)-amino]-2H-pyrazin-1-yl}-acetylamino)-3-(3-fluoro-phenyl)-propionic acid]	< 5.52	
C#C[C@H](CC(=O)O)NC(=O)Cn1c(C2CC2)ccc(NCc2ccc3c(n2)NCCC3)c1=O [(S)-3-(2-{6-Cyclopropyl-2-oxo-3-[(5,6,7,8-tetrahydro-[1,8]naphthyridin-2-ylmethyl)-amino]-2H-pyridin-1-yl}-acetylamino)-pent-4-ynoic acid]		< 5.52
O=C(O)C[C@H](NC(=O)Cn1cccc(NCc2ccc3c(n2)NCCC3)c1=O)c1cccnc1 [3-(2-{2-Oxo-3-[(5,6,7,8-tetrahydro-[1,8]naphthyridin-2-ylmethyl)-amino]-2H-pyridin-1-yl}-acetylamino)-3-(S)-pyridin-3-yl-propionic acid]		< 5.52
CCc1cnc(NCc2ccc3c(n2)NCCC3)c(=O)n1CC(=O)N[C@@H](CC(=O)O)c1cccc(F)c1 [(S)-3-(2-{6-Ethyl-2-oxo-3-[(5,6,7,8-tetrahydro-[1,8]naphthyridin-2-ylmethyl)-amino]-2H-pyrazin-1-yl}-acetylamino)-3-(3-fluoro-phenyl)-propionic acid]	< 5.52	
CCCc1ccc(NCc2ccc3c(n2)NCCC3)c(=O)n1CC(=O)N[C@@H](CC(=O)O)c1cccnc1 [3-(2-{2-Oxo-6-propyl-3-[(5,6,7,8-tetrahydro-[1,8]naphthyridin-2-ylmethyl)-amino]-2H-pyridin-1-yl}-acetylamino)-3-(S)-pyridin-3-yl-propionic acid]		< 5.52
O=C(O)C[C@H](NC(=O)Cn1c(C2CC2)cnc(NCc2ccc3c(n2)NCCC3)c1=O)c1cccc(F)c1 [(S)-3-(2-{6-Cyclopropyl-2-oxo-3-[(5,6,7,8-tetrahydro-[1,8]naphthyridin-2-ylmethyl)-amino]-2H-pyrazin-1-yl}-acetylamino)-3-(3-fluoro-phenyl)-propionic acid]	< 5.52	
O=C(O)C[C@H](NC(=O)Cn1c(C2CC2)ccc(NCc2ccc3c(n2)NCCC3)c1=O)c1cccnc1 [3-(2-{6-Cyclopropyl-2-oxo-3-[(5,6,7,8-tetrahydro-[1,8]naphthyridin-2-ylmethyl)-amino]-2H-pyridin-1-yl}-acetylamino)-3-(S)-pyridin-3-yl-propionic acid]		< 5.52
O=C(O)C[C@H](NC(=O)Cc1cccc(CCc2ccc3c(n2)NCCC3)c1)c1cccnc1 [3-(S)-Pyridin-3-yl-3-(2-{3-[2-(5,6,7,8-tetrahydro-[1,8]naphthyridin-2-yl)-ethyl]-phenyl}-acetylamino)-propionic acid]	< 5.52	
O=C(O)C[C@H](NC(=O)Cn1c(C2CC2)ccc(NCc2ccc3c(n2)NCCC3)c1=O)c1cccc(F)c1 [(S)-3-(2-{6-Cyclopropyl-2-oxo-3-[(5,6,7,8-tetrahydro-[1,8]naphthyridin-2-ylmethyl)-amino]-2H-pyridin-1-yl}-acetylamino)-3-(3-fluoro-phenyl)-propionic acid]		< 5.52
O=C(O)C[C@H](NC(=O)CN1CC[C@H](CCc2ccc3c(n2)NCCC3)C1=O)c1cccnc1 [3-(2-{(S)-2-Oxo-3-[2-(5,6,7,8-tetrahydro-[1,8]naphthyridin-2-yl)-ethyl]-pyrrolidin-1-yl}-acetylamino)-3-(S)-pyridin-3-yl-propionic acid]	< 5.52	
O=C(O)C[C@H](NC(=O)Cn1c(-c2ccccc2)c(Cl)nc(NCc2ccc3c(n2)NCCC3)c1=O)c1cccc(F)c1 [(S)-3-(2-{5-Chloro-2-oxo-6-phenyl-3-[(5,6,7,8-tetrahydro-[1,8]naphthyridin-2-ylmethyl)-amino]-2H-pyrazin-1-yl}-acetylamino)-3-(3-fluoro-phenyl)-propionic acid]	< 5.52	
Cc1cnc(NCc2ccc3c(n2)NCCC3)c(=O)n1CC(=O)N[C@@H](CC(=O)O)c1cccnc1 [3-(2-{6-Methyl-2-oxo-3-[(5,6,7,8-tetrahydro-[1,8]naphthyridin-2-ylmethyl)-amino]-2H-pyrazin-1-yl}-acetylamino)-3-(S)-pyridin-3-yl-propionic acid]		< 5.52
O=C(O)C[C@H](NC(=O)Cn1c(C2CC2)cnc(NCc2ccc3c(n2)NCCC3)c1=O)c1cccnc1 [(S)-3-(2-{6-Cyclopropyl-2-oxo-3-[(5,6,7,8-tetrahydro-[1,8]naphthyridin-2-ylmethyl)-amino]-2H-pyrazin-1-yl}-acetylamino)-3-pyridin-3-yl-propionic acid]	< 5.52	
